Here are results for 29 compounds from patent publication US12018001B2, “Pyrimidine cyclohexenyl glucocorticoid receptor modulators” (priority 2018, dated 2024).

The structures appear in SMILES notation. Like-named read-outs stand apart in the source and are kept apart here.

The target of one data set is T1, glucocorticoid receptor (Homo sapiens, UniProt P04150).
T1 construct: host or cells: HepG2
T1 sequence (P04150 1-777): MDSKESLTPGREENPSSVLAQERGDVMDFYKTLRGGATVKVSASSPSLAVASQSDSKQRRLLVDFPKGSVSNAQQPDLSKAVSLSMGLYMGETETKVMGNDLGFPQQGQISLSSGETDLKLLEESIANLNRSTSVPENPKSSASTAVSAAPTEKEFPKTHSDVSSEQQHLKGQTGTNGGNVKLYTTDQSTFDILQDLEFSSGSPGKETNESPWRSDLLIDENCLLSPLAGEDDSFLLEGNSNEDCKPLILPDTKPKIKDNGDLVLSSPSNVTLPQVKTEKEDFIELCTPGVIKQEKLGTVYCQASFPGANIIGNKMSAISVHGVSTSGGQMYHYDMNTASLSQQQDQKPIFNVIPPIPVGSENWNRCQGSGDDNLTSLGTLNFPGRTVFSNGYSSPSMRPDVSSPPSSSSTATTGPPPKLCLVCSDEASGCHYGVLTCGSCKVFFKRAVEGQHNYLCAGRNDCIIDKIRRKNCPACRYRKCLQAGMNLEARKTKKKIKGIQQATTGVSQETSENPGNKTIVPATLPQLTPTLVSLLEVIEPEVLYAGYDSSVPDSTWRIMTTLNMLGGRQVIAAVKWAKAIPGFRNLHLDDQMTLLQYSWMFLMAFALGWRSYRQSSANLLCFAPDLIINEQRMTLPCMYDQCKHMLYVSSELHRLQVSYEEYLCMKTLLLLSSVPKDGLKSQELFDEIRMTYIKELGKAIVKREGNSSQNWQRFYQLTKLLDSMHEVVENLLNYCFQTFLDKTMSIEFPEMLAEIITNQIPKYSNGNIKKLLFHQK
The experiment in a line: Hep G2 TAT assay: induction of TAT by dexamethasone in HepG2 cells. The format is cell-based. Here is the method:
Glucocorticoid mediated activation of TAT occurs by transactivation of glucocorticoid response elements in the TAT promoter by glucocorticoid receptor-agonist complex.
TAT activity was measured as outlined in the literature by A. Ali et al., J. Med. Chem., 2004, 47, 2441-2452.
HepG2 cells were cultured using MEME media supplemented with 10% (v/v) foetal bovine serum; 2 mM L-glutamine and 1% (v/v) NEAA at 37° C., 5%/95% (v/v) CO2/air. The HepG2 cells were counted and adjusted to yield a density of 0.125×10^6 cells/ml in RPMI 1640 without phenol red, 10% (v/v) charcoal stripped FBS, 2 mM L-glutamine and seeded at 25,000 cells/well in 200 μl into 96 well, sterile, tissue culture micro titre plates, and incubated at 37° C., 5% CO2 for 24 hours
Growth media was removed and replaced with assay media {RPMI 1640 without phenol red, 2 mM L-glutamine+10 μM forskolin}. […] Compounds were serially half log diluted in 100% (v/v) dimethylsulphoxide from a 10 mM stock.
HepG2 cells were then lysed with 30 μl of cell lysis buffer containing a protease inhibitor cocktail for 15 minutes at 4° C. 155 μl of substrate mixture was then added containing 5.4 mM Tyrosine sodium salt, 10.8 mM alpha ketoglutarate and 0.06 mM pyridoxal 5′ phosphate in 0.1 M potassium phosphate buffer (pH 7.4). After 2 hours incubation at 37° C. the reaction was terminated by the addition of 15 μl of 10 M aqueous potassium hydroxide solution, and the plates incubated for a further 30 minutes at 37° C. The TAT activity product was measured by absorbance at λ 340 nm.
[compound] and fitting the data to a 4 parameter logistic equation.

The nature of data set [1]: Rat pharmacokinetics (PK) studies, oral gavage cassette. Conditions: male, Sprague Dawley (or equivalent), rat plasma; for AUC(0-t): read-out: AUC0-24. The format is in vivo, male Sprague Dawley rats. Here is the method:
Rat PK studies were conducted in male Sprague Dawley rats (or equivalent) with 3 rats per group. Compounds were evaluated in cassettes of 4 compounds per cassette, with each cassette containing 3 test compounds and one comparator compound with known PK parameters. Rats were cannulated in the jugular vein. The compounds were administered by oral gavage using a suitable vehicle, such as 10% DMSO and 90% methyl cellulose. Compounds of Example 1, Example 10, Example 14, and Example 20 were evaluated with a nominal dose of 1.25 mg/kg and the compound of Example 32 was evaluated with a nominal dose of 3 mg/kg. Blood samples were collected at various timepoints out to 24 hours post-dose and processed to provide plasma. Compound concentrations in the plasma samples were determined by LC/MS analysis. Cmax and AUC were calculated using WinNonlin.

Another data set concerns the target T2, GR (Homo sapiens, UniProt P04150).
T2 sequence (P04150 1-777): T1 sequence (P04150 1-777)
As to the kind of experiment: GR binding.

Broadly, the Ki is the equilibrium dissociation constant of an inhibitor or competing ligand from its target. Low readings indicate a stronger hold on the target, high ones a looser hold on the target. The Cmax is the peak of the concentration-time curve. At glucocorticoid receptor, `N#Cc1ccc(C2=CCC(c3[nH]c(=O)[nH]c(=O)c3Cc3ccccc3)CC2)c(C(F)(F)F)c1` (stereo not drawn) [Example 32] displayed a Ki of 0.066 µM. Besides, in data set [1] (nominal dose 3 mg/kg), the Cmax was 453 ng/mL and the AUC(0-t) came out at 988 ng·h/mL.

The term IC50 denotes the concentration at which inhibition is half-maximal. Low values mean greater potency, high ones weaker potency. Take `O=c1[nH]c(C2CC=C(c3ccc(Cl)c(F)c3F)CC2)c(Cc2ccccc2)c(=O)[nH]1` (stereo not drawn) [Example 83]: the IC50 on GR is 0.0383 µM.

For the compound `Cc1nn(C)c(C)c1C1=CCC(c2[nH]c(=O)[nH]c(=O)c2Cc2ccccc2)CC1` (stereo not drawn) [Example 80], on GR, the IC50 was determined as 0.295 µM.

Turning to `Cn1ncc2ccc(C3=CCC(c4[nH]c(=O)[nH]c(=O)c4Cc4ccccc4)CC3)cc21` (stereo not drawn) [Example 57], the IC50 on GR is 0.266 µM.

At glucocorticoid receptor, `COc1cc(C#N)ccc1C1=CCC(c2[nH]c(=O)[nH]c(=O)c2Cc2ccccc2)CC1` (stereo not drawn) [Example 20] returned a Ki of 0.033 µM. Further, in data set [1] (nominal dose 1.25 mg/kg), the Cmax was 83.6 ng/mL and the AUC(0-t) is 375 ng·h/mL.

Turning to `CN(C)S(=O)(=O)c1cc(F)c(C2=CCC(c3[nH]c(=O)[nH]c(=O)c3Cc3ccccc3)CC2)c(F)c1` (stereo not drawn) [Example 104], on GR, the IC50 was found to be 3.16 µM.

As to `N#Cc1ccc(C2=CCC(c3[nH]c(=O)[nH]c(=O)c3Cc3ccccc3)CC2)c(Cl)c1` (stereo not drawn) [Example 1, 4′-(5-benzyl-2,6-dioxo-1,2,3,6-tetrahydropyrimidin-4-yl)-2-chloro-2′,3′,4′,5′-tetrahydro-[1,1′-biphenyl]-4-carbonitrile], at glucocorticoid receptor, the affinity, expressed as Ki, was 0.028 µM. Also, in data set [1] (nominal dose 1.25 mg/kg), the Cmax is 114 ng/mL and the AUC(0-t) came to 991 ng·h/mL.

Regarding `O=c1[nH]c(C2CC=C(c3cccc4nncn34)CC2)c(Cc2ccccc2)c(=O)[nH]1` (stereo not drawn) [Example 88], the IC50 at GR was found to be 0.483 µM. In other words, the sub-micromolar range.

Take `CN(C)c1ncccc1C1=CCC(c2[nH]c(=O)[nH]c(=O)c2Cc2ccccc2)CC1` (stereo not drawn) [Example 118]: the IC50 at GR turned out to be 0.00076 µM.

Compound `CN(C)c1ccc(C2=CCC(c3[nH]c(=O)[nH]c(=O)c3Cc3ccccc3)CC2)cn1` (stereo not drawn) [Example 70] gave an IC50 at GR of 0.142 µM.

Take `O=c1[nH]c(C2CC=C(c3ccc4c(c3)OCCO4)CC2)c(Cc2ccccc2)c(=O)[nH]1` (stereo not drawn) [Example 65]: the IC50 on GR was 0.103 µM.

As for `CC(C)Oc1cc(C(F)(F)F)ccc1C1=CCC(c2[nH]c(=O)[nH]c(=O)c2Cc2ccccc2)CC1` (stereo not drawn) [Example 59], on GR, the IC50 amounted to 0.134 µM. This IC50 and that of the compound before are within 1.5-fold of each other.

Turning to `O=c1[nH]c(C2CC=C(c3ccc(OC4CC4)cc3Cl)CC2)c(Cc2ccccc2)c(=O)[nH]1` (stereo not drawn) [Example 93], the IC50 on GR was found to be 0.01 µM.

`O=c1[nH]c(C2CC=C(c3cccnc3C(F)(F)F)CC2)c(Cc2ccccc2)c(=O)[nH]1` (stereo not drawn) [Example 14] returned a Ki on glucocorticoid receptor of 0.041 µM. Moreover, in data set [1] (nominal dose 1.25 mg/kg), the Cmax was found to be 63 ng/mL and the AUC(0-t) worked out at 188 ng·h/mL.

`O=c1[nH]c(C2CC=C(c3ccc(Cl)cc3C(F)(F)F)CC2)c(Cc2ccccc2)c(=O)[nH]1` (stereo not drawn) [Example 10]: at glucocorticoid receptor, the Ki was 0.038 µM. In data set [1] (nominal dose 1.25 mg/kg), the highest concentration (Cmax) turned out to be 196 ng/mL and the AUC(0-t) stood at 3040 ng·h/mL.

`O=c1[nH]c(C2CC=C(c3cnc(C(F)(F)F)nc3)CC2)c(Cc2ccccc2)c(=O)[nH]1` (stereo not drawn) [Example 72] yielded a 50% inhibitory concentration (IC50) at GR of 1.92 µM.

In turn, `O=c1[nH]c(C2CC=C(c3ccc(OC(F)F)cc3Cl)CC2)c(Cc2ccccc2)c(=O)[nH]1` (stereo not drawn) [Example 108] yielded an IC50 at GR of 0.0054 µM. Against the preceding compound, the IC50 is about 360-fold lower.

Compound `CS(=O)(=O)c1ccc(C2=CCC(c3[nH]c(=O)[nH]c(=O)c3Cc3ccccc3)CC2)c(Cl)c1` (stereo not drawn) [Example 106] yielded an IC50 at GR of 0.0021 µM.

In the case of `Cn1cnc2ccc(C3=CCC(c4[nH]c(=O)[nH]c(=O)c4Cc4ccccc4)CC3)cc21` (stereo not drawn) [Example 66], the half-maximal inhibitory concentration (IC50) on GR came to 3.52 µM. This IC50 is about 1700-fold higher than that of the compound before.

`O=c1[nH]c(C2CC=C(c3ccc(OCC4CC4)cc3C(F)(F)F)CC2)c(Cc2ccccc2)c(=O)[nH]1` (stereo not drawn) [Example 95] yielded a half-maximal inhibitory concentration (IC50) on GR of 0.023 µM.

`CNS(=O)(=O)c1cc(C(F)(F)F)ccc1C1=CCC(c2[nH]c(=O)[nH]c(=O)c2Cc2ccccc2)CC1` (stereo not drawn) [Example 96] gave an IC50 on GR of 5.09 µM. This IC50 is about 220-fold higher than that of the compound before.

As for `CN(C)S(=O)(=O)c1cc(C(F)(F)F)ccc1C1=CCC(c2[nH]c(=O)[nH]c(=O)c2Cc2ccccc2)CC1` (stereo not drawn) [Example 97], the IC50 at GR came out at 2.56 µM.

`CCS(=O)(=O)c1cc(F)c(C2=CCC(c3[nH]c(=O)[nH]c(=O)c3Cc3ccccc3)CC2)c(F)c1` (stereo not drawn) [Example 105] came in with an IC50 at GR of 0.0716 µM. Against the preceding compound, the IC50 is about 36-fold lower.

`O=c1[nH]c(C2CC=C(c3ccc(C(F)(F)F)c(Cl)c3)CC2)c(Cc2ccccc2)c(=O)[nH]1` (stereo not drawn) [Example 69] displayed a half-maximal inhibitory concentration (IC50) at GR of 3.42 µM.

In turn, `CCOc1ccc(C2=CCC(c3[nH]c(=O)[nH]c(=O)c3Cc3ccccc3)CC2)c(Cl)c1` (stereo not drawn) [Example 82] showed an IC50 on GR of 0.0044 µM.

`CCS(=O)(=O)c1ccc(C2=CCC(c3[nH]c(=O)[nH]c(=O)c3Cc3ccccc3)CC2)c(Cl)c1` (stereo not drawn) [Example 107] registered an IC50 on GR of 0.0028 µM. This IC50 lies about 1.6-fold lower than the previous one.

Turning to `O=c1[nH]c(C2CC=C(c3ccc4ncsc4c3)CC2)c(Cc2ccccc2)c(=O)[nH]1` (stereo not drawn) [Example 64], the IC50 at GR was determined as 0.142 µM.

Turning to `O=c1[nH]c(C2CC=C(c3ccc(S(=O)(=O)N4CCCC4)cc3F)CC2)c(Cc2ccccc2)c(=O)[nH]1` (stereo not drawn) [Example 100], the affinity on glucocorticoid receptor corresponds to a Ki of 1.6 µM.

`O=c1[nH]c(C2CC=C(c3ccc(F)cc3C(F)(F)F)CC2)c(Cc2ccccc2)c(=O)[nH]1` (stereo not drawn) [Example 34] showed a Ki at glucocorticoid receptor of 0.023 µM. This Ki is about 70-fold lower than that of the compound before.
